Experimental data published in ChEMBL document CHEMBL1140957, “GRIND-based 3D-QSAR to predict inhibitory activity for similar enzymes, OSC and SHC” (Eur J Med Chem, 2008).
Values joined by “and” are separate entries in the source; they are usually repeats but may differ in a detail not shown here. Equal entries are not always repeated.

Molecular target: T1, Lanosterol synthase (Homo sapiens, UniProt P48449)
T1 sequence (P48449 whole entry): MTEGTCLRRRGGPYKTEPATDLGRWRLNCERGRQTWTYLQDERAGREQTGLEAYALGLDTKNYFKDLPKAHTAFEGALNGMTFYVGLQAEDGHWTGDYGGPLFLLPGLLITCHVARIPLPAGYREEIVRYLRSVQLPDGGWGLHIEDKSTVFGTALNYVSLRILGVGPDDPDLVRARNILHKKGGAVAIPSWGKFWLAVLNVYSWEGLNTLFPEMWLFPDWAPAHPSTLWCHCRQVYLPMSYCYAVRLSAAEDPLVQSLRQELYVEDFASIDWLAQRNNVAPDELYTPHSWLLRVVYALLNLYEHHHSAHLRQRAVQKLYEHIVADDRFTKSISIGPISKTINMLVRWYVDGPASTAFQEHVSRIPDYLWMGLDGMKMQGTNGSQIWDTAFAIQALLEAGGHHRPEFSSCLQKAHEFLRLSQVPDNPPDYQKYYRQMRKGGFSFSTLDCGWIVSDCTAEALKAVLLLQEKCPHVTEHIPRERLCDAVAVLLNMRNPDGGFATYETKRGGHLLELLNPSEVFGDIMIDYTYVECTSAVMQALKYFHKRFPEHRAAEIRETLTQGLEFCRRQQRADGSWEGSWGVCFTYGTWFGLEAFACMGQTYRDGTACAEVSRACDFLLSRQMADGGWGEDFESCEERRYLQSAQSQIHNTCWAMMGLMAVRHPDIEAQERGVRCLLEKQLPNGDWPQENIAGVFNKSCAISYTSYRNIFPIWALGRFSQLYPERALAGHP
Assay: Inhibition of oxidosqualene cyclase

Row | IC50 [nM] | Compound
1 | 6.46 | C=CCN(C[C@H]1C[C@@H]1COc1ccc(C(=O)c2ccc(Br)cc2)cc1)C1CC1
2 | 28.8 | CN(CCCO)CCCCCCOc1ccc(C(=O)c2ccc(Br)cc2)cc1
3 | 19.5 | C=CCN(C)CCCCCCOc1ccc2c(c1)c(C)nn2C

Molecular target: not listed separately
Assay: Inhibition of squalene-hopene cyclase

Row | Compound | pIC50
4 | CN(CCCCCCOC1CCN(C(=O)c2ccc(F)cc2)CC1)C1CC1 | 6.12
5 | C=CCN(C)CCCCCCOc1ccc2c(-c3ccc(Br)cc3)noc2c1 | 7.12
6 | CN(CCCO)CCCCCCOc1ccc(C(=O)c2ccc(Br)cc2)cc1 | 6.55
7 | C=CCN(C)CCCCCCOc1ccc2c(c1)c(C)nn2C | 6.54 and 6.48
8 | C=CCN(C)C/C=C/COc1ccc(-c2nsc3cc(Br)ccc23)cc1 | 6.89
9 | C=CCN(C)C/C=C/COc1ccc2c(-c3ccc(Br)cc3)csc2c1 | 7.12
10 | C=CCN(C)C/C=C/COc1ccc2c(-c3ccc(Br)cc3)noc2c1 | 7.31
11 | C=CCN(C)CCCCCCOC1CCN(C(=O)c2ccc(F)cc2)CC1 | 5.92
12 | C=CCN(C)CCCCCCOc1ccc2c(c1)CON=C2c1ccc(Br)cc1 | 6.76

Next, values leading:

Row | pIC50 | Compound
13 | 7.3 | CN(C[C@H]1C[C@@H]1COc1ccc(C(=O)c2ccc(Br)cc2)c(F)c1)C1CC1
14 | 7.42 | CN(CCCCCCOc1ccc(C(=O)c2ccc(Br)cc2)c(F)c1)C1CC1
15 | 7.02 | C=CCN(C)CCCCCCOc1ccc(C(=O)c2ccc(Br)cc2)cc1
16 | 7.21 | CN(C[C@H]1C[C@@H]1COc1ccc(C(=O)c2ccc(Br)cc2)cc1)C1CC1
17 | 7.4 | C=CCN(C)C/C=C/COc1ccc(C(=O)c2ccc(Br)cc2)cc1
